Patent publication US5179082A, “Method for blocking platelet adhesion to collagen” (Merck & Co., Inc., priority 1991, dated 1993)
Read-outs that look alike come from different tables or passages of the source. Positions of bridges follow the written chain, without caps; N, C: chain ends. No end group written: not given here.

What was measured:
[1] = molecular target: fibrinogen receptor glycoprotein IIb/IIIa
[2] = system: platelet adhesion to collagen; assay: Inhibition of platelet adhesion to collagen-coated microtiter wells; assay type: cell-based
Procedure: (§1) Polystyrene 96-well microtiter plates (Costar, Cambridge, MA) are coated with […] per well of […] collagen dissolved in 5 mM acetic acid for 1 hour at room temperature followed by blocking of the non-specific cell binding sites by addition of […] of 10 mg/ml heat-denatured BSA for 1 hour. Control wells are coated with BSA only. The wells are rinsed three times with HEPES buffered saline (HBS) containing 20 mM HEPES, pH 7.4, 0.14 M NaCl, and 2 mM MgCl2. […] of washed platelets are incubated with various concentrations of polypeptide I or buffer as a control for 5 minutes at room temperature and then added to each collagen coated well and incubated at room temperature for 45 minutes. Nonadherent platelets are removed by aspiration, and the wells are rinsed three times with […] of HBS. The number of adhered platelets is determined by protein assay, using the BCA reagent and measuring the absorbance of each well at […].
(§2) Sequence ID Nos. I, II, III, IV and V were evaluated for their ability to block platelet adhesion to collagen using the assay described in Example 2 to determine inhibition of platelet adhesion to collagen. An assay similar to the assay described in Example 2, with the exception that plates are coated with fibrinogen rather than collagen, for determining inhibition of platelet binding to fibrinogen.

[3] = system: platelet adhesion to fibrinogen; assay: Inhibition of platelet adhesion to fibrinogen-coated plates; assay type: cell-based; parameters: Percent Inhibition of Adhesion, Fibrinogen, Extent: dose or concentration left out as unconfirmed; settings: for IC50: fibrinogen-coated plates
Procedure: as §1, §2

[4] = system: ADP-stimulated platelet aggregation; assay: Inhibition of ADP-stimulated platelet aggregation; assay type: cell-based; settings: Table 1
[5] = Preliminary in vivo antithrombotic studies

Substance	Percent inhibition of adhesion to fibrinogen, Extent [1] [%]	Percent inhibition of adhesion to collagen, Extent (washed platelets) [%]	Inhibition of platelet adhesion to collagen (in words) [2]	Percent Inhibition of Adhesion, Collagen, Extent ([2]; Table 1) [%]	Decrease of control A562 values (adhered platelets) ([2]; concentration dependent, control A562 0.3 to 1.0 O.D.)	Percent Inhibition of Adhesion, Fibrinogen, Extent ([3]; Table 1, concentration not given) [%]	IC50 ([3]; Table 1) [nM]	IC50 [4] [nM]	Antithrombotic effect in vivo [5]	IC50 ([2]; Table 1, collagen-coated wells, washed platelets) [nM]	Specificity for platelet adhesion to collagen (versus fibrinogen) ([2]; comparison of Table 1 values)	Percent Inhibition of Adhesion, Fibrinogen, Extent [3] [%]
polypeptide I (Sequence ID No. 1), synthetic echistatin	95	50										
H-ECESGPCCRNCKFLKEGTICKRARGDDMDDYCNGKTCDCPRNPHKGPAT-OH (disulfide 2-11, 7-32, 8-37, 20-39 (inferred)) [Polypeptide I, echistatin]			inhibit platelet adhesion to collagen	50	up to 50%	95	270	30	very effective antithrombotic agent			
Polypeptide V: NH2 (Ch) Ala Arg Gly Asp (Cy) Z, Z = NH2; 39 amino acids, terminal amino group at Cys 39 (ECESGPCCRNCKFLKEGTICKRARGDDMDDYCNGKTCDC-NH2; not fully specified (bridges); also: terminal modifications Ch, Cy, terminal amino group at Cys 39)				58			> 8000	800		530	most specific for platelet adhesion to collagen	55
